Experimental data published in US20240325373A1, “METHODS AND COMPOSITIONS FOR INHIBITION OF DIHYDROOROTATE DEHYDROGENASE IN COMBINATION WITH AN ANTI-CD47-SIRPA THERAPEUTIC AGENT” (OHIO STATE INNOVATION FOUNDATION, priority 2021, published 2024).

Assays:
[1] = system: a variety of unrelated viruses; conditions: in vitro; Harvey et al. (2009); read-out: EC50, inhibition of virus replication; cited from earlier work
MV4-11 cells = experiment: CALR, CD47 and SIRPα surface expression (MFI, flow cytometry) in MV4-11 cells after DHODHi treatment with or without uridine; assay type: cell-based; conditions: 72 h; BRQ 500 nM, Cpd4 10, 25, 50, 100 nM, BAY 1 nM; reversible with 0.1 mM uridine
Procedure: MV4-11 cells were treated with vehicle (DMSO), brequinar (BRQ, 500 nM), Cpd4 (10, 25, 50, 100 nM), or BAY2402234 (BAY, 1 nM) for 72 hours, in the presence or absence of exogenous uridine (0.1 mM). After the 72-hour treatment, cells were collected, washed and stained for flow cytometric analysis and the mean fluorescent intensity (MFI) measured to determine calreticulin (CALR) and CD47 surface expression.
(§1) FIGS. 8A-8B show representative data for the Mean Fluorescent Intensity (MFI) of SIRPα (CD172a) surface expression following the indicated treatments. […] Briefly, cells were treated for 72 hours to determine SIRPα level using flow cytometry and determine if SIRPα level was different in the P53 mutant clones. As shown, SIRPα level appears modestly higher in the heterozygous P53 MV4-11 clone. […] Briefly, MV4-11 cells were treated for 72 hours with DHODHi with or without uridine to measure SIRPα surface expression post DHODHi therapy.

[2] = system: MV4-11 P53 wild type, heterozygous and homozygous clones; experiment: Sensitivity and CD47/SIRPα surface expression of MV4-11 P53 clones treated with DHODHi; assay type: cell-based; conditions: 72 h; reversed with 0.1 mM exogenous uridine
Procedure: MV4-11 cell line was reported to harbor a R248W TP53 hotspot mutation (Yan B, Chen Q, Xu J, Li W, Xu B, Qiu Y. Leukemia 2020 doi 10.1038/s41375-020-0710-7.). Accordingly, the MV4-11 cell line was single cell sorted to separate the P53 mutant sub-clone and generated three clones; P53 wild type, P53 heterozygous, and P53 homozygous to interrogate the potential role of P53 mutation on DHODHi activity and if DHODHi affected CD47 expression. Therefore, MV4-11 clones were treated with DHODHi, brequinar (BRQ) or Cpd4 for 72 hours. Cells were then collected, washed with PBS then stained for flow cytometry analysis of CD47 surface expression and the overall sensitivity of the MV4-11 clones to DHODHi.
as §1

MOLM-13 cells = experiment: Disseminated MOLM-13 xenograft, treatment from 4 days after implantation (Example 5); assay type: in vivo; design: ILS / Median survival: unit not given here; conditions: for Statistical Significance: vs vehicle; for Median survival Ratio: Column A (vehicle) to Column B; for Median survival: treated group; for Hazard Ratio (Logrank) Ratio / Hazard Ratio (Mantel-Haenszel) Ratio: vehicle (Group 1) vs treated
Procedure: Briefly, ten week old male NCG mice (NOD-Prkdcem26Cd52//2rgem26Cd22/NjuCrl, Charles River) were injected intravenously (i.v.) in the tail vein with 1×10^5 MOLM-13 cells resuspended in cold phosphate buffer saline (PBS), using 0.2 mL of a suspension at 5×10^5 MOLM-13 cells/mL. Four days after tumor cell implantation, which was designated as Day 1 of the study, mice were randomized into eight treatment groups (n=10) based on body weights. Note that for the sample administration above, vehicle was a 50/50 mix of 40% HPBCD in sterile water and 10% Ethanol/90% PEG400. […] The remaining mice were left on study to monitor for an additional 25 days to determine if any residual disease would relapse following drug cessation. Thus, at day 106, all remaining mice were euthanized and spleens and bone marrow were harvested and analyzed by flow cytometry to investigate whether residual disease was present.

H929 = experiment: CD47 surface expression by flow cytometry in multiple myeloma cell line H929; assay type: cell-based; conditions: from 48 h after the start of treatment
Procedure: (§2) Briefly, tumor cells were typically grown at 37° C. in a humidified atmosphere with 5% C02 in RPMI 1640 medium, supplemented with 10% (v/v) fetal calf serum and 50 μg/ml gentamicin for up to 20 passages, and were typically passaged once or twice weekly. Cells were harvested by centrifugation, and the percentage of viable cells were determined using a CASY Model TT cell counter (OMNI Life Science). Cells were harvested from exponential phase cultures, counted and plated in […] plates at a cell density depending on the cell line's growth rate in RPMI 1640 medium supplemented with 10% (v/v) fetal calf serum and 50 µg/ml gentamicin (140 μl/well). At the time of plating, a t=0 h timepoint was taken as a baseline measurement (dotted horizontal lines in the figures). Cultures were incubated at 37° C. and 5% C02 in a humidified atmosphere. At 24 h after cell seeding, DMSO (vehicle control) or the test compound at three different concentrations was added, and left on the cells for another 48 h, 96 h, or 144 h. […] After standard washing techniques, the cells were analyzed on an Attune NxT Acoustic Focusing Cytometer (Thermo Fisher Scientific, Waltham, MA). Antibody Binding Capacity (ABC) was determined using Quantum™ Simply Cellular® quantification beads (Bio-Rad Laboratories, Hercules, CA).

[3] = Separate cell-based assays (IC50 of Cpd4)
MM1.S = experiment: CD47 surface expression by flow cytometry in multiple myeloma cell line MM1.S; assay type: cell-based; conditions: from 48 h after the start of treatment
Procedure: as §2

U266B1 = experiment: CD47 surface expression and viability by flow cytometry in multiple myeloma cell line U266B1; assay type: cell-based; conditions: three concentrations of Cpd4
Procedure: as §2

MOLM-13 tumor cells = experiment: Disseminated MOLM-13 aggressive xenograft, treatment from 10 days after implantation (Example 6); assay type: in vivo; conditions: for BW Nadir (Lowest Mean Body Weight for Group): % of initial mean BW
Procedure: Briefly, NCG mice were i.v. injected in the tail vein with 1×10^5 MOLM-13 tumor cells suspended in PBS in a cell injection volume of 0.2 mL/mouse. Animals were randomized into treatment groups based on Day 1 body weight. The study start date (Day 1) was at 10 days post implant (tumor injection). In the study, males were separated into single housing if excessive fighting or aggressive behavior was observed. The animals were 8 to 12 weeks old at study start. […] Any group with a mean body weight loss of >20% or >10% mortality had dosing terminated, but not euthanized, and allowed to recover. Within a group, any individual animal with a >20% weight loss endpoint were euthanized. […] At the endpoint, the animals were euthanized per standard procedure. Clinical signs associated with progression of tumor include impairment of hind limb function, ocular proptosis, and weight loss. Full hindlimb paralysis, ocular proptosis, or moribundity were considered sufficient for euthanasia.

O=C(N[C@@H]1CCCc2c1[nH]c1ccc(Cl)cc21)c1ccccn1 [GSK983]
EC50 [1]: 5 to 20 nM

Cc1c(-c2ccc(-c3ccccc3F)cc2)nc2ccc(F)cc2c1C(=O)O [BRQ, 6-fluoro-2-(2′-fluoro-1,1-biphenyl-4-yl)-3-methyl-4-quinolinecarboxylic acid, reference compound]
CALR surface expression (MFI) (MV4-11 cells): upregulated
CD47 surface expression (MFI) (MV4-11 cells): upregulated
CD47 surface expression [2]: upregulate surface CD47 expression regardless of the P53 mutation status
SIRPα surface expression [2]: upregulate surface SIRPα expression regardless of the P53 mutation status

CCn1c(CO)nn(-c2cc(O[C@@H](C)C(F)(F)F)c(C(=O)Nc3c(F)cccc3Cl)cc2F)c1=O [BAY2402234, N-(2-chloro-6-fluorophenyl)-4-(4-ethyl-3-(hydroxymethyl)-5-oxo-4,5-dihydro-1H-1,2,4-triazol-1-yl)-5-fluoro-2-((1,1,1-trifluoropropan-2-yl)oxy)benzamide, reference compound]
CALR surface expression (MFI) (MV4-11 cells): upregulated
CD47 surface expression (MFI) (MV4-11 cells): upregulated
Deaths NTRa (MOLM-13 cells; 4 mg/kg po qd): 1
ILS (MOLM-13 cells; 4 mg/kg po qd): 144
Mean BW Nadir (MOLM-13 cells; 4 mg/kg po qd): −5.7%
Median TTE (MOLM-13 cells; 4 mg/kg po qd): 44.0
n Remaining Day 106 (MOLM-13 cells; 4 mg/kg po qd): 0
Statistical Significance (MOLM-13 cells; 4 mg/kg po qd): *** (*** = P ≤ 0.001)
Median survival Ratio (MOLM-13 cells; 4 mg/kg po qd): 0.4091
Median survival (MOLM-13 cells; 4 mg/kg po qd): 44
Hazard Ratio (Logrank) Ratio (MOLM-13 cells; 4 mg/kg po qd): 4.397
Hazard Ratio (Mantel-Haenszel) Ratio (MOLM-13 cells; 4 mg/kg po qd): 21.48

CCCCOc1cccc(-c2ccc(-c3cc(C(=O)O)c4cc(F)ccc4n3)cc2)c1 [Cpd4, 2-(3′-butoxy-[1,1′-biphenyl]-4-yl)-6-fluoroquinoline-4-carboxylic acid]
CD47 surface expression (H929): increase in CD47 surface expression in these cell lines apparent starting at 48 h
IC50 [3]: 11 nM
CALR surface expression (MFI) (MV4-11 cells): upregulated
CD47 surface expression (MFI) (MV4-11 cells): upregulated
CD47 surface expression (MM1.S): increase in CD47 surface expression in these cell lines apparent starting at 48 h
overall cell viability (U266B1; 48 h, 96 h, 144 h): dose-dependent correlation in Cpd4 concentration and overall cell viability
surface expression of CD47 (median fluorescence intensity, antibody binding capacity) (U266B1; 96 h and 144 h): increased in a dose-dependent manner
CD47 surface expression [2]: upregulate surface CD47 expression regardless of the P53 mutation status
SIRPα surface expression [2]: upregulate surface SIRPα expression regardless of the P53 mutation status
ILS (MOLM-13 cells; 4 mg/kg po qd): 125
Mean BW Nadir (MOLM-13 cells; 4 mg/kg po qd): −4.1%
Median TTE (MOLM-13 cells; 4 mg/kg po qd): 40.5
n Remaining Day 106 (MOLM-13 cells; 4 mg/kg po qd): 0
Statistical Significance (MOLM-13 cells; 4 mg/kg po qd): *** (*** = P ≤ 0.001)
Deaths TR (MOLM-13 cells; 10 mg/kg po qd): 0
ILS (MOLM-13 cells; 10 mg/kg po qd): 183
Mean BW Nadir (MOLM-13 cells; 10 mg/kg po qd): −3.5%
Median TTE (MOLM-13 cells; 10 mg/kg po qd): 51.0
n Remaining Day 106 (MOLM-13 cells; 10 mg/kg po qd): 0
Statistical Significance (MOLM-13 cells; 10 mg/kg po qd): *** (*** = P ≤ 0.001)
Median survival Ratio (MOLM-13 cells; 4 mg/kg po qd): 0.4444
Median survival Ratio (MOLM-13 cells; 10 mg/kg po qd): 0.3529
Median survival (MOLM-13 cells; 4 mg/kg po qd): 40.5
Median survival (MOLM-13 cells; 10 mg/kg po qd): 51
Hazard Ratio (Logrank) Ratio (MOLM-13 cells; 4 mg/kg po qd): 4.553
Hazard Ratio (Mantel-Haenszel) Ratio (MOLM-13 cells; 4 mg/kg po qd): 25.21
Hazard Ratio (Logrank) Ratio (MOLM-13 cells; 10 mg/kg po qd): 4.553
Hazard Ratio (Mantel-Haenszel) Ratio (MOLM-13 cells; 10 mg/kg po qd): 25.21
ILS (Increased Life Span) (MOLM-13 tumor cells; Cpd4 4.12 mg/kg po qd to end): 174.1
Median TTE (Median Time to Endpoint) (MOLM-13 tumor cells; Cpd4 4.12 mg/kg po qd to end): 37 days
NTR (No. of Non-treatment-related Deaths, due to Accident/Unknown Etiology) (MOLM-13 tumor cells; Cpd4 4.12 mg/kg po qd to end): 0
NTRm (No. of Non-treatment-related Deaths, due to Metastasis) (MOLM-13 tumor cells; Cpd4 4.12 mg/kg po qd to end): 0
TR (No. of Treatment-related Deaths) (MOLM-13 tumor cells; Cpd4 4.12 mg/kg po qd to end): 0
s (Number of Remaining Animals) (MOLM-13 tumor cells; Cpd4 4.12 mg/kg po qd to end): 0
BW Nadir (Lowest Mean Body Weight for Group) (MOLM-13 tumor cells; Cpd4 4.12 mg/kg po qd to end): −9.0% (35)
ILS (Increased Life Span) (MOLM-13 tumor cells; Cpd4 10.31 mg/kg po qd to end): 225.9
Median TTE (Median Time to Endpoint) (MOLM-13 tumor cells; Cpd4 10.31 mg/kg po qd to end): 44 days
NTR (No. of Non-treatment-related Deaths, due to Accident/Unknown Etiology) (MOLM-13 tumor cells; Cpd4 10.31 mg/kg po qd to end): 0
NTRm (No. of Non-treatment-related Deaths, due to Metastasis) (MOLM-13 tumor cells; Cpd4 10.31 mg/kg po qd to end): 0
TR (No. of Treatment-related Deaths) (MOLM-13 tumor cells; Cpd4 10.31 mg/kg po qd to end): 0
s (Number of Remaining Animals) (MOLM-13 tumor cells; Cpd4 10.31 mg/kg po qd to end): 5
BW Nadir (Lowest Mean Body Weight for Group) (MOLM-13 tumor cells; Cpd4 10.31 mg/kg po qd to end): −5.2% (42)
